# Experimental data taken from PMC3961306, “Comparison of the Cancer Gene Targeting and Biochemical Selectivities of All Targeted Kinase Inhibitors Approved for Clinical Use” (PLoS ONE, 2014).
# Legend:
# Assay in all cases: Kinase profiling in a biochemical assay panel (mobility shift assays and ELISA), %-inhibition at 1 μM; selectivity entropy
# [1] = biological target: T1, panel of more than 300 wild-type and mutant kinases (313 kinase panel) (Homo sapiens, UniProt P36888)
# T1 sequence (P36888 27-993): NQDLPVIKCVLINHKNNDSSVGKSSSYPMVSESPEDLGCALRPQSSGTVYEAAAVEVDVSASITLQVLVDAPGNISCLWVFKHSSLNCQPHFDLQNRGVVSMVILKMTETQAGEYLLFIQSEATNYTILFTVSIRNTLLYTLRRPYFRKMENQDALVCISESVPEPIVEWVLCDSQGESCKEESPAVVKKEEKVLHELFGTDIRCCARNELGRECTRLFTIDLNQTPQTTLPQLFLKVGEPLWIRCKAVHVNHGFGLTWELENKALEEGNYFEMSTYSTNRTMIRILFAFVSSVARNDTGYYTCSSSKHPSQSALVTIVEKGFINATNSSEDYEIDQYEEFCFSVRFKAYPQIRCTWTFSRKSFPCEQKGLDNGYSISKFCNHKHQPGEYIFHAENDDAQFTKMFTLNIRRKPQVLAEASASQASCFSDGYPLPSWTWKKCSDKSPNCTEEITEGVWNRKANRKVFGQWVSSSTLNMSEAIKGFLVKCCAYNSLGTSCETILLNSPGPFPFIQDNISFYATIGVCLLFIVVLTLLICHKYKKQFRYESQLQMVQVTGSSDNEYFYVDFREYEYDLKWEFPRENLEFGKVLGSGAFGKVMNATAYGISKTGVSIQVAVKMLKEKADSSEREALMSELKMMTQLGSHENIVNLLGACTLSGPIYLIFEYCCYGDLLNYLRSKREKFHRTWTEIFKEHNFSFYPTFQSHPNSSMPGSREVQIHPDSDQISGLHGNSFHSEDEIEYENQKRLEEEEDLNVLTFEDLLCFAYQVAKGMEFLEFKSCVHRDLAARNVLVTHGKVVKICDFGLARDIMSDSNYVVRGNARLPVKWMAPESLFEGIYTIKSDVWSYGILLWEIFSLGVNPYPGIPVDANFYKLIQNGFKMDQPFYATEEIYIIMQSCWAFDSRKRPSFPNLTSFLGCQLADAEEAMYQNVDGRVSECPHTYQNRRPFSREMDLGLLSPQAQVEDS
# [2] = biological target: T2, panel of more than 300 wild-type and mutant kinases (313 kinase panel) (Homo sapiens, UniProt O14920)
# T2 sequence (O14920 1-756): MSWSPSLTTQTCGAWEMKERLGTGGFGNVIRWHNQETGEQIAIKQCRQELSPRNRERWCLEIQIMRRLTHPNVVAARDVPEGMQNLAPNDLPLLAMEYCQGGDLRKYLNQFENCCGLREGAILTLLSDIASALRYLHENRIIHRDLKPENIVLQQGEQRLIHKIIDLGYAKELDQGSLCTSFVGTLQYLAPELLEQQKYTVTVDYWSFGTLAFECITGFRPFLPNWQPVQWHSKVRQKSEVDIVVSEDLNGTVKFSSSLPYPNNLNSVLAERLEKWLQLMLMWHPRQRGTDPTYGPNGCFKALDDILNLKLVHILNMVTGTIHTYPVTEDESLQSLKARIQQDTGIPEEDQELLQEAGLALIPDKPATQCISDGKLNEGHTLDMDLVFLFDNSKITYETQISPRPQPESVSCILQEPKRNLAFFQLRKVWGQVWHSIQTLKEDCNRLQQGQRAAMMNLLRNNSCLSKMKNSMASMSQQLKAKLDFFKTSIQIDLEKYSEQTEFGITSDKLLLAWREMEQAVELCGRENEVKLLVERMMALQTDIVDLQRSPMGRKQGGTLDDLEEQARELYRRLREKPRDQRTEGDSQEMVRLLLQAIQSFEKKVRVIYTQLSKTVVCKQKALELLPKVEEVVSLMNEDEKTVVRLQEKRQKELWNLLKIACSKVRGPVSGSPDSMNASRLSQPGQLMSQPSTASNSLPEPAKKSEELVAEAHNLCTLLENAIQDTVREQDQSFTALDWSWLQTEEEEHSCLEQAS
# [3] = biological target: T3, panel of more than 300 wild-type and mutant kinases (313 kinase panel) (Homo sapiens, UniProt Q92630)
# T3 sequence (Q92630 1-601): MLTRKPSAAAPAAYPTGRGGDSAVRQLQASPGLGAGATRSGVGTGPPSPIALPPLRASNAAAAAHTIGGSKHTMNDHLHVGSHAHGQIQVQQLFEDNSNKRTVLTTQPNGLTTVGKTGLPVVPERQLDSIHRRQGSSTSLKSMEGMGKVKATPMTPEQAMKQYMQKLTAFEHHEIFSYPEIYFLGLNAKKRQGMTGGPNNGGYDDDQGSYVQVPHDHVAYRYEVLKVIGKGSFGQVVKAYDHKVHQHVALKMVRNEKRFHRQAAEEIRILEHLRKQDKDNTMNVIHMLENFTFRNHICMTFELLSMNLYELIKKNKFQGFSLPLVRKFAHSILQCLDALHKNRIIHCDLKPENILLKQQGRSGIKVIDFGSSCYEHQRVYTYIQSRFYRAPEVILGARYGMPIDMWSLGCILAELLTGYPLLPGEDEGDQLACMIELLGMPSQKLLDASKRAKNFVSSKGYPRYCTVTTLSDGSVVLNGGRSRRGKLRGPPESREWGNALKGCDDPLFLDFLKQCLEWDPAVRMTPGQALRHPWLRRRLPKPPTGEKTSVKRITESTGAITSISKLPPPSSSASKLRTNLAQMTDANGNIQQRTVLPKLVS
Structure (SMILES),"%-inhibition of FLT3 ([1]; kinase FLT3, compound at 1 μM) [%]","%-inhibition of IKKβ ([2]; kinase IKKβ, compound at 1 μM) [%]","%-inhibition of DYRK2 ([3]; kinase DYRK2, compound at 1 μM) [%]",%-inhibition of DYRK2 ([3]; 1 µM) [%],%-inhibition of FLT3 ([1]; 1 µM) [%],%-inhibition of IKKβ ([2]; 1 µM) [%]
CC(C)(C)c1nc(-c2cccc(NS(=O)(=O)c3c(F)cccc3F)c2F)c(-c2ccnc(N)n2)s1 [dabrafenib],41,3.71,6,,,
CCCS(=O)(=O)Nc1ccc(F)c(C(=O)c2c[nH]c3ncc(-c4ccc(Cl)cc4)cc23)c1F [vemurafenib],10,-3.31,1,,,
Cc1nc(Nc2ncc(C(=O)Nc3c(C)cccc3Cl)s2)cc(N2CCN(CCO)CC2)n1 [dasatinib],,,12,,,
C[C@@H](Oc1cc(-c2cnn(C3CCNCC3)c2)cnc1N)c1c(Cl)ccc(F)c1Cl [crizotinib],,-5,10,,,
Cc1ccc(C(=O)Nc2ccc(CN3CCN(C)CC3)c(C(F)(F)F)c2)cc1C#Cc1cnc2cccnn12 [ponatinib],99,46,,,,
O=S(=O)(c1cccc2cnccc12)N1CCCNCC1 [fasudil],22,3.71,-1.3,,,
COc1cc(Nc2c(C#N)cnc3cc(OCCCN4CCN(C)CC4)c(OC)cc23)c(Cl)cc1Cl [bosutinib],77,-6,,,,
CO[C@H]1C[C@@H]2CC[C@@H](C)[C@@](O)(O2)C(=O)C(=O)N2CCCC[C@H]2C(=O)O[C@H]([C@H](C)C[C@@H]2CC[C@@H](OCCO)[C@H](OC)C2)CC(=O)[C@H](C)/C=C(\C)[C@@H](O)[C@@H](OC)C(=O)[C@H](C)C[C@H](C)/C=C/C=C/C=C/1C [everolimus],2.25,-3,-10,,,
Cc1ccc(Nc2nccc(N(C)c3ccc4c(C)n(C)nc4c3)n2)cc1S(N)(=O)=O [pazopanib],,0.627,-1,,,
CNC(=O)c1cc(Oc2ccc(NC(=O)Nc3ccc(Cl)c(C(F)(F)F)c3)c(F)c2)ccn1 [regorafenib],68,-4.61,2,,,
CC(=O)Nc1cccc(-n2c(=O)n(C3CC3)c(=O)c3c(Nc4ccc(I)cc4F)n(C)c(=O)c(C)c32)c1 [trametinib],20,0.741,-0.0865,,,
CO[C@H]1C[C@@H]2CC[C@@H](C)[C@@](O)(O2)C(=O)C(=O)N2CCCC[C@H]2C(=O)O[C@H]([C@H](C)C[C@@H]2CC[C@@H](OC(=O)C(C)(CO)CO)[C@H](OC)C2)CC(=O)[C@H](C)/C=C(\C)[C@@H](O)[C@@H](OC)C(=O)[C@H](C)C[C@H](C)/C=C/C=C/C=C/1C [temsirolimus],5,-4.44,-3.63,,,
CS(=O)(=O)CCNCc1ccc(-c2ccc3ncnc(Nc4ccc(OCc5cccc(F)c5)c(Cl)c4)c3c2)o1 [lapatinib],-3.74,0.904,,10,,
COc1cc2c(Nc3ccc(Br)cc3F)ncnc2cc1OCC1CCN(C)CC1 [vandetanib],90,-4.53,-9,,,
COc1cc2nccc(Oc3ccc(NC(=O)C4(C(=O)Nc5ccc(F)cc5)CC4)cc3)c2cc1OC [cabozantinib],91,-2.35,17,,,
N#CC[C@H](C1CCCC1)n1cc(-c2ncnc3[nH]ccc23)cn1 [ruxolitinib],,,-10,,18,2.26
Cc1cn(-c2cc(NC(=O)c3ccc(C)c(Nc4nccc(-c5cccnc5)n4)c3)cc(C(F)(F)F)c2)cn1 [nilotinib],,-1.78,28,,60,
C#Cc1cccc(Nc2ncnc3cc(OCCOC)c(OCCOC)cc23)c1 [erlotinib],,,,45,,11
